# What was measured:
# [1] = Liver microsome stability, rat; format: in vitro ADME; settings: liver microsomes
# [2] = Rat PK; format: in vivo; settings: iv 2 mg/kg
# [3] = Hepatocytes stability, human; format: in vitro ADME
# [4] = Liver microsome stability, mouse; format: in vitro ADME; settings: liver microsomes
# [5] = Hepatocytes stability, mouse; format: in vitro ADME
# [6] = Mouse PK; format: in vivo; settings: iv 3 mg/kg
# [7] = Liver microsome stability, human; format: in vitro ADME; settings: liver microsomes
# [8] = Hepatocytes stability, rat; format: in vitro ADME
# [9] = Predicted human clearance by simple allometric scaling; settings: simple allometric scaling method
# [10] = tested on: HCoV-OC43; format: in vivo; settings: intraperitoneal injection, 7 days, 6 neonatal mice per group
# [11] = target: SARS-CoV-2 M^pro (Severe acute respiratory syndrome coronavirus 2, UniProt P0DTD1); assay: SARS-CoV-2 Mpro enzymatic assay; format: biochemical
# [12] = vehicle 40% PEG400 + 60 %saline
compound,measurement,setting,value
N#C[C@H](C[C@@H]1CCNC1=O)NC(=O)[C@@H]1[C@H]2CCC[C@H]2CN1C(=O)[C@@H](NC(=O)C(F)(F)F)C1CCCCC1 [3a],CLint scaled,[1],< 17.3 mL/min/kg
same,CL,[2]; vehicle saline,62.7 mL min^−1 kg^−[1]
same,CLint scaled,[3],< 17.8 mL/min/kg
same,CLint scaled,[4],215 mL/min/kg
same,CLint scaled,[5],455 mL/min/kg
same,CL,[6]; vehicle saline,92.2 mL min^−1 kg^−[1]
same,CLint scaled,[7],19 mL/min/kg
same,CLint scaled,[8],51 mL/min/kg
CC(C)(C)NC(=O)C(=O)[C@H](C[C@@H]1CCNC1=O)NC(=O)[C@@H]1[C@H]2CCC[C@H]2CN1C(=O)[C@@H](NC(=O)C(F)(F)F)C1CCCCC1 [4a],CLint scaled,[1],25 mL/min/kg
same,CL,[2]; [12],2.55 mL min^−1 kg^−[1]
same,CLint scaled,[3],< 17.8 mL/min/kg
same,CLint scaled,[4],212 mL/min/kg
same,CLint scaled,[5],1020 mL/min/kg
same,CL,[6]; [12],2.50 mL min^−1 kg^−[1]
same,Predicted human clearance,[9],about 2.9 ml/min/kg
same,Mice survived at day 14,[10]; high dosing group,6/6
same,Mice survived,[10]; low dosing group,four out of six
same,CLint scaled,[8],42 mL/min/kg
N#C[C@H](C[C@@H]1CCNC1=O)NC(=O)[C@@H]1[C@H]2CCC[C@H]2CN1C(=O)[C@@H](NC(=O)C(F)(F)F)c1ccc(F)cc1 [3b],Fold weaker in enzymatic potency relative to 2a,[11]; relative to 2a,4 fold
"CC(C)(C)[C@H](NC(=O)C(F)(F)F)C(=O)N1C[C@H]2[C@@H]([C@H]1C(=O)N[C@H](C#N)C[C@@H]1CCNC1=O)C2(C)C [nirmatrelvir, reference compound]",CLint scaled,[1],< 17.3 mL/min/kg
same,CL,[2]; vehicle saline,42.0 mL min^−1 kg^−[1]
same,CLint scaled,[3],< 17.8 mL/min/kg
same,CLint scaled,[4],329 mL/min/kg
same,CLint scaled,[5],169 mL/min/kg
same,CL,[6]; vehicle saline,30.2 mL min^−1 kg^−[1]
same,CLint scaled,[7],29 mL/min/kg
same,CLint scaled,[8],< 29.9 mL/min/kg
CC(C)(C)[C@H](NC(=O)C(F)(F)F)C(=O)N1C[C@@H]2CCC[C@@H]2[C@H]1C(=O)N[C@H](C#N)C[C@@H]1CCNC1=O [2a],CLint scaled,[1],< 17.3 mL/min/kg
same,CL,[2]; vehicle saline,75.4 mL min^−1 kg^−[1]
same,CLint scaled,[3],< 17.8 mL/min/kg
same,CLint scaled,[4],262 mL/min/kg
same,CLint scaled,[5],435 mL/min/kg
same,CL,[6]; vehicle saline,79.3 mL min^−1 kg^−[1]
same,CLint scaled,[7],13 mL/min/kg
same,CLint scaled,[8],32 mL/min/kg
CC(C)(C)NC(=O)C(=O)[C@H](C[C@@H]1CCNC1=O)NC(=O)[C@@H]1[C@H]2CCC[C@H]2CN1C(=O)[C@@H](NC(=O)C(F)(F)F)C1CCCC1 [4c],CL,[6]; [12],5.06 mL min^−1 kg^−[1]
CC(=O)N[C@H](C(=O)N1C[C@@H]2CCC[C@@H]2[C@H]1C(=O)N[C@H](C#N)C[C@@H]1CCNC1=O)C1CCCCC1 [3c],Folds loss in enzymatic and cell potencies,"[11]; P3 cap modifications, enzymatic and cell potencies",3–10 folds
